Source: patent publication US7217530B2 (priority 2002, dated 2007)

How the values were obtained:
[1] = biological target: recombinant PrP protein (recPrP) (Homo sapiens, UniProt P04156); assay type: physicochemical

## p-sulfonato-3,7-(2-carboxy-methyloxy)-calix-[6]-arene [AML1]
[1]; SPM images, FIGS. 3 and 4
  structures observed for recPrP films in the presence of AML: modified sequentially
[1]; dried film on mica, SPM
  Average height: 217.7
  Maximum height value: 448.9
  RMS (root mean square rugosity): 58.7 nm
  Ra (average rugosity): 48 nm
PrP^sc
  dilution up to which detection of PrP^sc in the sample is possible: 1/32
PrP^sc; immunoblotting, FIG. 1, free AML1
  detection of the prion increased over detection of the same protein in the absence of AML1: at least four
